Reference: article PMC12951562, “SH2scan: Mapping SH2 Domain-Ligand Binding Selectivity for Inhibitors and Degraders” (Journal of Medicinal Chemistry, 2026)
Where two headings read alike, the source gives them in different places. Non-standard residues stand in square brackets, D forms with d. Residues, ends and D or L forms follow the SMILES beside them. *: point of attachment. pY = N[C@@H](Cc1ccc(OP(=O)(O)O)cc1)C(=O)O; Caffeoyl = O=C(/C=C/c1ccc(O)c(O)c1)*

Legend:
Assay in all cases: biochemical
Format in all cases: binding
Details in all cases: for remaining activity at 10 µM: read-out: percent of DMSO vehicle control
[1] = biological target: T1, TNS3 (Homo sapiens, UniProt Q68CZ2)
T1 construct: made in house; host or cells: HEK293 (transient transfection), unpurified extract
T1 sequence (Q68CZ2 1-1445): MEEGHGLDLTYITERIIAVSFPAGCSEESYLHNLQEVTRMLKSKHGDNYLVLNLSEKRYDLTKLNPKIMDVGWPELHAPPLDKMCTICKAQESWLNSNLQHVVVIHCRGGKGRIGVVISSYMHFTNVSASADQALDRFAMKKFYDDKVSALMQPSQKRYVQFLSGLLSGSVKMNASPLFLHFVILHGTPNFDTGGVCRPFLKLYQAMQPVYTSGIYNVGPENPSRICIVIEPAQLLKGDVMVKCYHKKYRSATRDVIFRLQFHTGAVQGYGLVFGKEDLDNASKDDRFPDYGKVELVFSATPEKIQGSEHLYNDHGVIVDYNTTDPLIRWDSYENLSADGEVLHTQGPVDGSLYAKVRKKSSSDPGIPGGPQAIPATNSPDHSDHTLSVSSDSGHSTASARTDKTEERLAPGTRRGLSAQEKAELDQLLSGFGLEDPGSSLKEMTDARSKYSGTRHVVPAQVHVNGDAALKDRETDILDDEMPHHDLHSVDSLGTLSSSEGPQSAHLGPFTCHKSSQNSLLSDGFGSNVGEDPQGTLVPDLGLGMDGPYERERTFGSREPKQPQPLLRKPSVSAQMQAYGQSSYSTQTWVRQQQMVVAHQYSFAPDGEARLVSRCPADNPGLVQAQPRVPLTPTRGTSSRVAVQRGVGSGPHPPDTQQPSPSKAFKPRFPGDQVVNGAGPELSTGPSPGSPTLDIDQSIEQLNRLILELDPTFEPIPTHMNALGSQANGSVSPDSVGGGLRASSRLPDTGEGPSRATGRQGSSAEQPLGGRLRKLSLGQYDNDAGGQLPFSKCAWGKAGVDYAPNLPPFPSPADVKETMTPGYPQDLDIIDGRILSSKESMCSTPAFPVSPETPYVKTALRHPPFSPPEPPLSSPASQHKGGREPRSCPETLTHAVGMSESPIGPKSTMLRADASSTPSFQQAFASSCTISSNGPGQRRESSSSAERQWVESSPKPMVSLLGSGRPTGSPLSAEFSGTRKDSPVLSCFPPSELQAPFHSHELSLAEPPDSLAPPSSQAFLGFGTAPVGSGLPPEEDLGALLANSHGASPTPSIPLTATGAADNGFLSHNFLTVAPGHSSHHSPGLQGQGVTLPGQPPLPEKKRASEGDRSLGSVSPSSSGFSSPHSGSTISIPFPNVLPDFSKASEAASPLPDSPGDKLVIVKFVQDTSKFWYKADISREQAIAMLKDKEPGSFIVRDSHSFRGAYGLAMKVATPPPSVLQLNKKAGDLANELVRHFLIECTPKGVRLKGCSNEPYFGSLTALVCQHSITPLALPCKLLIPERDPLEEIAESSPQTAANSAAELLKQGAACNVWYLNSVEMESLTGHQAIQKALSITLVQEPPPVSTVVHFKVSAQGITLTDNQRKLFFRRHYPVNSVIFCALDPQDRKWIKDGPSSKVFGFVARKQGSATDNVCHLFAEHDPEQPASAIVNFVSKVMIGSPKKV

[2] = biological target: T2, STAT1 (Homo sapiens, UniProt P42224)
T2 construct: made in house; host or cells: HEK293 (transient transfection), unpurified extract
T2 sequence (P42224 1-750): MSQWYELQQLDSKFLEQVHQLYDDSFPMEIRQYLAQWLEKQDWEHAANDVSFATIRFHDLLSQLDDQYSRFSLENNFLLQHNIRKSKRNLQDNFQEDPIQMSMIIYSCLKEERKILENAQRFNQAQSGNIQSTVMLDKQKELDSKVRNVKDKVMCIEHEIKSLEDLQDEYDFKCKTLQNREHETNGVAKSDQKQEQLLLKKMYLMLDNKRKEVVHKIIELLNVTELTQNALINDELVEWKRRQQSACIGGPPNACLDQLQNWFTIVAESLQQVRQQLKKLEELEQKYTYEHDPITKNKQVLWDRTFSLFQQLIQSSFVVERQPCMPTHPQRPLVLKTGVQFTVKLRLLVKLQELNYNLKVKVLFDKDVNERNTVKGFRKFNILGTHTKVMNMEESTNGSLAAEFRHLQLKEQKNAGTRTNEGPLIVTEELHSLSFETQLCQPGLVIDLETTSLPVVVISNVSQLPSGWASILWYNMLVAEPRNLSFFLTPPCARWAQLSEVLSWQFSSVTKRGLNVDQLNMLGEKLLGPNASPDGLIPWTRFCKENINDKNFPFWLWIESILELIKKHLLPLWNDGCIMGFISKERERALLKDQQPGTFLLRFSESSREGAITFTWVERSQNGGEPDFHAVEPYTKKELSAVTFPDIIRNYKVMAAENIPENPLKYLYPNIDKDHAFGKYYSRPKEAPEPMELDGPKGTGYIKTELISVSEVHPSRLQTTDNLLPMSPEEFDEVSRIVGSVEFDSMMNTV

[3] = biological target: T3, SH2B (SH2B1) (Homo sapiens, UniProt Q9NRF2)
T3 construct: made in house; host or cells: HEK293 (transient transfection), unpurified extract

[4] = biological target: T4, FES (Homo sapiens, UniProt P07332)
T4 construct: the DNA-tagged SH2 domain concentrations used in this study were <0.1 nM; made in house; host or cells: HEK293 (transient transfection; unpurified extract)
T4 sequence (P07332 460-549 limits assumed): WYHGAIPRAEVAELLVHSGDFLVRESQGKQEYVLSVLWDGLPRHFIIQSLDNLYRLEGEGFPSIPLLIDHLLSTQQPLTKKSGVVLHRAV

[5] = biological target: T5, TXK (Homo sapiens, UniProt P42681)
T5 construct: made in house; host or cells: HEK293 (transient transfection), unpurified extract
T5 sequence (P42681 1-527): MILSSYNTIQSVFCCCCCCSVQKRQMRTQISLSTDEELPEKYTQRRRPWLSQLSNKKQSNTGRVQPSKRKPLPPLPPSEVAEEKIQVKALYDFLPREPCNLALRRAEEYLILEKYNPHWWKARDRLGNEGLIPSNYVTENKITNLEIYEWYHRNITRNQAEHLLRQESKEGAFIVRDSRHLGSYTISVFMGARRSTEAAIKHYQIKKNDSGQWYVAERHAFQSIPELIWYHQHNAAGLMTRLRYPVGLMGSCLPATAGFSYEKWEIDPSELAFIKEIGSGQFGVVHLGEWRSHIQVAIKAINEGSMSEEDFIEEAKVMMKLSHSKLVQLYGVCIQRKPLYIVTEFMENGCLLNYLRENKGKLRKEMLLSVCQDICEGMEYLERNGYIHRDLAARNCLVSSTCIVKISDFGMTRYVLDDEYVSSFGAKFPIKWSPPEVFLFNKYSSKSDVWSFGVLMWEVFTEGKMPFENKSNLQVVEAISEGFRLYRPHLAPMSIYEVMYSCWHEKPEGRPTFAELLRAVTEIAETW

[6] = biological target: T6, PIK3R3(SH2dom.N-term.) (Homo sapiens, UniProt Q92569)
T6 construct: SH2dom.N-term. denotes SH2 domain closest to N-terminus of protein; made in house; host or cells: HEK293 (transient transfection, unpurified extract)

| Structure (SMILES) | Kd [1] [nM] | remaining activity at 10 µM [2] [%] | remaining activity at 10 µM [1] [%] | remaining activity at 10 µM [3] [%] | remaining activity at 10 µM [4] [%] | remaining activity at 10 µM [5] [%] | remaining activity at 10 µM [6] [%] | remaining activity at 10 µM ([2]; primary screen, 10 μM) [%] | remaining activity at 10 µM ([1]; primary screen, 10 μM) [%] | remaining activity at 10 µM ([3]; primary screen, 10 μM) [%] | remaining activity at 10 µM ([4]; primary screen, 10 μM) [%] | remaining activity at 10 µM ([5]; primary screen, 10 μM) [%] | remaining activity at 10 µM ([6]; primary screen, 10 μM) [%] | Kd ([2]; dose-response, read-out: KD) [nM] | other results |
| --- | --- | --- | --- | --- | --- | --- | --- | --- | --- | --- | --- | --- | --- | --- | --- |
| CC[C@H](C)[C@H](NC(=O)[C@H](CO)NC(=O)[C@H](CC(C)C)NC(=O)[C@H](CCCNC(=N)N)NC(=O)[C@H](CO)NC(=O)[C@H](CS)NC(C)=O)C(=O)N[C@@H](Cc1ccc(OP(=O)(O)O)cc1)C(=O)N[C@@H](CC(=O)O)C(=O)N[C@@H](CC(N)=O)C(=O)N[C@H](C(=O)N1CCC[C@H]1C(=O)NCC(N)=O)C(C)C [Ac-CSRLSIpYDNVPG-NH2] (Ac-CSRLSI[pY]DNVPG-NH2) | 120 ± 28.9 | – | – | – | – | – | – | – | – | – | – | – | – | – | – |
| CC[C@H](C)[C@H](NC(=O)[C@H](CCC(=O)O)NC(=O)[C@H](CCC(=O)O)NC(=O)[C@H](Cc1ccc(OP(=O)(O)O)cc1)NC(C)=O)C(=O)N[C@@H](CCC(=O)O)C(N)=O [Ac-pYEEIE-NH2] (Ac-[pY]EEIE-NH2) | – | – | – | – | – | – | – | – | – | – | – | – | – | – | percent of DMSO vehicle control ([2]; primary screen, 10 μM): 69.3%; percent of DMSO vehicle control ([1]; primary screen, 10 μM): 83.2±4.0%; percent of DMSO vehicle control ([3]; primary screen, 10 μM): 126.6%; Kd [4]: 4200 nM; percent of DMSO vehicle control ([4]; primary screen, 10 μM): 24.1±2.4%; percent of DMSO vehicle control ([5]; primary screen, 10 μM): 109.9%; percent of DMSO vehicle control ([6]; primary screen, 10 μM): 85.7% |
| CC(=O)N[C@@H](Cc1ccc(CP(=O)(O)O)cc1)C(=O)NC1(C(=O)N[C@@H](CC(N)=O)C(=O)NCCCc2c(O)ccc3ccccc23)CCCCC1 [CGP78850] | 620 | 71.2 ± 2.1 | 9.8 ± 0.1 | 125 ± 1.9 | 52 ± 0.5 | 74.4 ± 2.5 | 111 ± 10.3 | – | – | – | – | – | – | – | – |
| CC[C@H](C)[C@H](NC(=O)[C@H](CCC(=O)O)NC(=O)[C@H](CCC(=O)O)NC(=O)[C@H](Cc1ccc(OP(=O)(O)O)cc1)NC(=O)/C=C/c1ccc(O)c(O)c1)C(=O)N[C@@H](CCC(=O)O)C(=O)O [Caffeic acid-pYEEIE] (Caffeoyl-[pY]EEIE-OH) | 1000 ± 210 | 27.1 ± 21.3 | 1.8 ± 0.6 | 2.3 ± 0.4 | 2.2 ± 0.4 | 2.7 ± 0.3 | 0.6 | – | – | – | – | – | – | – | KD ([2]; dose-response): No Hit; Kd [3]: 910 ± 310 nM; Kd [4]: 24 ± 4.9 nM; Kd [5]: 950 ± 250 nM; Kd [6]: 150 ± 20 nM |
| O=C(CCl)Nc1cccc(CNC(=O)[C@H](Cc2ccc(OP(=O)(O)O)cc2)NC(=O)Cc2ccc(F)cc2)c1 [MN551] | – | – | – | – | – | – | – | 49.8 ± 4.1 | 48.5 ± 7.3 | 105 | 82.1 ± 4.3 | 89.1 | 97.7 | – | – |
| NC(=O)CC[C@H](NC(=O)[C@@H]1CC[C@@H]2CCN(C(=O)CCCCCC#Cc3cccc4c3CN(C3CCC(=O)NC3=O)C4=O)C[C@H](NC(=O)c3cc4cc(C(F)(F)P(=O)(O)O)ccc4[nH]3)C(=O)N21)C(=O)NC(c1ccccc1)c1ccccc1 (some centres unmarked) [SD-36] | – | 9.1 | 57.6 ± 6 | 68.4 ± 0.4 | 46.3 ± 7.5 | 101 ± 9.7 | 111 ± 7.3 | – | – | – | – | – | – | – | Kd ([2]; dose-response): 180 ± 61 nM |
| CC(=O)N1CC[C@H]2CC[C@@H](C(=O)N[C@@H](CCC(N)=O)C(=O)NC(c3ccccc3)c3ccccc3)N2C(=O)[C@@H](NC(=O)c2cc3cc(C(F)(F)P(=O)(O)O)ccc3[nH]2)C1 [SI-109] | – | 0 | 128 | 149 | 160 | 118 | 142 | – | – | – | – | – | – | – | Kd [2]: 180 ± 35 nM |
| C/C(=C\C(=O)N[C@H](C(=O)N1CCC[C@H]1C(=O)N(c1ccccc1)c1ccc(I)cc1)C(C)(C)C)c1ccc(OP(=O)(O)O)cc1 [STAT6-IN-1] | – | – | – | – | – | – | – | 0 | 57 ± 10.1 | 22.6 ± 6.8 | 66.3 ± 6.4 | 87.1 ± 5.9 | 48.3 ± 1.7 | 330 ± 73 | – |
| CC(C)(C)[C@H](NC(=O)/C=C/c1ccc(OP(=O)(O)O)cc1)C(=O)N1CCC[C@H]1C(=O)N(c1ccccc1)c1ccc(I)cc1 [STAT6-IN-3] | – | – | – | – | – | – | – | 0.7 ± 0.6 | 55.6 ± 12.1 | 78.1 ± 4.8 | 82 ± 13.1 | 85.4 ± 12.9 | 85.8 ± 16.7 | 670 ± 330 | – |
| O=C(COc1ccc2cc(C(=O)Nc3ccccc3)ccc2c1)NCc1ccc(OP(=O)(O)O)c(OP(=O)(O)O)c1 [Stafib-1] | – | – | – | – | – | – | – | 48.2 ± 5.4 | 77.8 ± 9 | 92.7 ± 14.3 | 116 | 144 | 105 | 37000 | – |
